Experimental data reported in the NIST ThermoML archive (doi:10.1016/j.tca.2016.04.007).
Numbers after ± are expanded uncertainties.

Tests used:
[1] = Crystal; DTA
[2] = Molar enthalpy of transition or fusion; settings: Crystal; DSC

| SMILES | Normal melting temperature [1] [°C] | Molar enthalpy of transition or fusion [2] [kcal/mol] |
| --- | --- | --- |
| CCCCCCCCCCCCCCCCCCBr [1-bromooctadecane] | 23.50 ± 3 | 12.9 ± 0.311 |
| CCCCCCCCCCCCCCCCBr [1-bromohexadecane] | 14.20 ± 3 | 10.9 ± 0.287 |
